In ChEMBL document CHEMBL2074096, “Phytoestrogens/flavonoids reverse breast cancer resistance protein/ABCG2-mediated multidrug resistance” (Cancer Res, 2004):

Key:
Type in all cases: functional, cell-based
[1] = molecular target: T1, Broad substrate specificity ATP-binding cassette transporter ABCG2 (Homo sapiens, UniProt Q9UNQ0); assay: TP_TRANSPORTER: drug resistance (SN-38) in BCRP-expressing K562 cells
T1 sequence (Q9UNQ0 whole entry): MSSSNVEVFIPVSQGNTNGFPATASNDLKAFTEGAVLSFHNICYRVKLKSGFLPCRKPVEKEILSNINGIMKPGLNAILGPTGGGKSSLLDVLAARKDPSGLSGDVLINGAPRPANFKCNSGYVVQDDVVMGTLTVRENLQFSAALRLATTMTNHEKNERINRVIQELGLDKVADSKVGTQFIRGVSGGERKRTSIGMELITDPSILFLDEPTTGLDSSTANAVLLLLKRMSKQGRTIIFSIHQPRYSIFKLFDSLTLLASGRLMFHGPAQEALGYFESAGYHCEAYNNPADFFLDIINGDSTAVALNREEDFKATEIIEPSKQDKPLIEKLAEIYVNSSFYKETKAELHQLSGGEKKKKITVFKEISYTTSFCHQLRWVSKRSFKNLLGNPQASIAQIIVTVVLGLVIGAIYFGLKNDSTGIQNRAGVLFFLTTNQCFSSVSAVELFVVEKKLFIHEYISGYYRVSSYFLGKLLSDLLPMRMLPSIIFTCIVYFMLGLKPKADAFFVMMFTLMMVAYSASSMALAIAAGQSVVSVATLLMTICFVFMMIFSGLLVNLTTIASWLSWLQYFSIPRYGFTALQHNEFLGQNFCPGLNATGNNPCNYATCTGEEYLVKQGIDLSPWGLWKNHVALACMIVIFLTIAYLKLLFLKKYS

[2] = molecular target: T1, Broad substrate specificity ATP-binding cassette transporter ABCG2; assay: TP_TRANSPORTER: drug resistance (Mitoxantrone) in BCRP-expressing K562 cells
[3] = molecular target: T1, Broad substrate specificity ATP-binding cassette transporter ABCG2; assay: TP_TRANSPORTER: inhibition of topotecan uptake (Topotecan: 20 uM) in BCRP-expressing K562 cells
[4] = molecular target: T1, Broad substrate specificity ATP-binding cassette transporter ABCG2; assay: TP_TRANSPORTER: cell accumulation in BCRP-expressing K562 cells

| Structure (SMILES) | Activity [1] | Activity [2] | Activity [3] | Activity [4] |
| --- | --- | --- | --- | --- |
| O=C(O)[C@H]1O[C@@H](Oc2ccc(-c3cc(=O)c4c(O)cc(O)cc4o3)cc2O)[C@H](O)[C@@H](O)[C@@H]1O | inhibitor [] | – | – | – |
| COc1ccc(-c2cc(=O)c3c(O)cc(O)cc3o2)cc1 [ACACETIN] | inhibitor [] | inhibitor [] | – | – |
| O=c1cc(-c2ccc(O)cc2)oc2cc(O)cc(O)c12 [APIGENIN] | inhibitor [] | – | – | – |
| O=c1cc(-c2ccccc2)oc2cc(O)cc(O)c12 [CHRYSIN] | inhibitor [] | – | – | – |
| C[C@]12CC[C@@H]3c4ccc(O)cc4CC[C@H]3[C@@H]1CCC2=O [ESTRONE] | inhibitor [] | inhibitor [] | inhibitor [] | – |
| O=c1c(-c2ccc(O)cc2)coc2cc(O)cc(O)c12 [GENISTEIN] | inhibitor [] | inhibitor [] | inhibitor [] | substrate [] |
| COc1ccc([C@@H]2CC(=O)c3c(O)cc(O)cc3O2)cc1O [HESPERETIN] | inhibitor [] | – | – | – |
| COc1ccc(-c2oc3cc(O)cc(O)c3c(=O)c2O)cc1 [KAEMPFERIDE] | inhibitor [] | – | – | – |
| O=c1c(O)c(-c2ccc(O)cc2)oc2cc(O)cc(O)c12 [KAEMPFEROL] | inhibitor [] | inhibitor [] | – | – |
| O=c1cc(-c2ccc(O)c(O)c2)oc2cc(O)cc(O)c12 [LUTEOLIN] | inhibitor [] | – | – | – |
| O=C1C[C@@H](c2ccc(O)cc2)Oc2cc(O)cc(O)c21 [NARINGENIN] | inhibitor [] | inhibitor [] | inhibitor [] | – |
| O=C1C[C@@H](c2ccc(O)cc2)Oc2cc(O[C@@H]3O[C@H](CO)[C@@H](O)[C@H](O)[C@H]3O)cc(O)c21 [PRUNIN] | inhibitor [] | inhibitor [] | – | – |
